These are literature values, as cited in patent US10098870B2 (JENKEM TECHNOLOGY CO., LTD. (BEIJING), priority 2013, dated 2018).

The conditions of data set [1]: acids, bases, physiological conditions; in words; cited from earlier work.
The conditions of data set [2]: in words; cited from earlier work.

With `CO[C@H]1C[C@@H]2CC[C@@H](C)[C@@](O)(O2)C(=O)C(=O)N2CCCC[C@H]2C(=O)O[C@H]([C@H](C)C[C@@H]2CC[C@@H](O)[C@H](OC)C2)CC(=O)[C@H](C)/C=C(\C)[C@@H](O)[C@@H](OC)C(=O)[C@H](C)C[C@H](C)/C=C/C=C/C=C/1C` [Rapamycin], the stability entry in data set [1] is reported as “degraded even under physiological conditions”.

Take `CO[C@H]1C[C@@H]2CC[C@@H](C)[C@@](O)(O2)C(=O)C(=O)N2CCCC[C@H]2C(=O)O[C@H]([C@H](C)C[C@@H]2CC[C@@H](OCCO)[C@H](OC)C2)CC(=O)[C@H](C)/C=C(\C)[C@@H](O)[C@@H](OC)C(=O)[C@H](C)C[C@H](C)/C=C/C=C/C=C/1C` [Everolimus, 42-O-(2-hydroxyethyl)-rapamycin]: the water-solubility result in data set [2] was “better water-solubility than that of rapamycin”.
